Data set [1] concerns the target Recombinant human TYK2 catalytic domain (Homo sapiens (Human), UniProt P29597). Put plainly: TYK2 inhibition assay. The format is biochemical. The following applies: semi-quantitative score. The gist of the method:
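Recombinant human TYK2 catalytic domain; radiometric kinase reaction run 90 min at 30° C, stopped with phosphoric acid, washed and counted by scintillation.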

In another data set the test system is TNF-alpha release. The data set can be described thus: Septic shock model (LPS-induced TNF release). The format is in vivo, mouse. The following applies: 30 mg/kg po, BALB/cJ mice, LPS ip; statistically significant.
Data set [2] is described as follows: Caco2 permeability (bi-directional). The following applies: human, pH 7.4; for Papp A→B at 1 h, 10 µM: Caco-2, apical to basolateral, read-out: Papp (A2B); for efflux ratio at 1 h, 10 µM: Caco-2, ratio of PappB>A/PappA>B. The format is in vitro ADME, human. In a few lines:
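Compound concentrations in both chambers were measured by LC-MS/MS after 1 h incubation at 37 °C on an orbital shaker. Efflux ratio is PappB>A over PappA>B. Lucifer Yellow (50 μM in donor) confirmed layer integrity, with permeability of ≤100 nm/s required.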

For data set [3], the system named is Collagen antibody-induced arthritis. Put plainly: MAB model (collagen antibody-induced arthritis). The following applies: 30 mg/kg p.o., DBA/J mice. The data set is classed as in vivo, mouse. As to the method: The MAB model allows a rapid assessment of the modulation of an RA-like inflammatory response by therapeutics ([…]. Nature Protocols (2006) 2512-2516: Collagen antibody-induced arthritis). DBA/J mice were injected i.v. with a cocktail of mAbs directed against collagen II. One day later, compound treatment was initiated (vehicle: 10% (v/v) HPβCD). Three days later, mice received an i.p. LPS injection (50 μg/mouse), resulting in a fast onset of inflammation. Compound treatment was continued until 10 days after the mAb injection. Inflammation was read by measuring paw swelling and recording the clinical score of each paw. The cumulative clinical arthritis score of four limbs was presented to show the severity of inflammation. A scoring system is applied to each limb using a scale of 0-4, with 4 being the most severe inflammation. • 0 Symptom free • 1 Mild, but definite redness and swelling of one type of joint such as the ankle or wrist, or apparent redness and swelling limited to individual digits, regardless of the number of affected digits • 2 Moderate redness and swelling of two or more types of joints • 3 Severe redness and swelling of the entire paw including digits • 4 Maximally inflamed limb with involvement of multiple joints

Sequence of Recombinant human TYK2 catalytic domain (P29597 871-1187): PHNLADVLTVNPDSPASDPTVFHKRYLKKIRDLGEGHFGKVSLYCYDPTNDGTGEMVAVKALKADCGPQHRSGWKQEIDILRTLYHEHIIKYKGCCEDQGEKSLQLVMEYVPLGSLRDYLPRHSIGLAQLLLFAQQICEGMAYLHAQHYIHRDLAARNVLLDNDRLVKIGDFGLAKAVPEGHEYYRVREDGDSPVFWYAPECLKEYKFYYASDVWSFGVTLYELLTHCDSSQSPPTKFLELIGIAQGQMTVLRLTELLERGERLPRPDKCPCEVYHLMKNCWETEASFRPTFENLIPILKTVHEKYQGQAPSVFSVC

By IC50 is commonly meant the concentration that inhibits the measured activity by half. As for `O=C(Nc1nc2cccc(-c3ccc(CN4CCOCC4)cc3)n2n1)C1CC1` [Compound 18, N-(5-(4-(morpholinomethyl)phenyl)-[1,2,4]triazolo[1,5-a]pyridin-2-yl)cyclopropanecarboxamide], the IC50 in data set [1] was > 1000 nM. Besides, the “reduction in the TNF release” value with TNF-alpha release was > 50%.

A word on the efflux ratio: it is a quotient of directional permeabilities that is used to spot active efflux. For `CC1CCCN(C(=O)c2ccc(-c3cccc4nc(NC(=O)C5CC5)nn34)cc2)C1` (centres unmarked) [Compound 145, N-(5-(4-(3-methylpiperidine-1-carbonyl)phenyl)-[1,2,4]triazolo[1,5-a]pyridin-2-yl)cyclopropanecarboxamide], in data set [2], the Papp A→B at 1 h, 10 µM came to 14.7 ×10⁻⁶ cm/s and the efflux ratio at 1 h, 10 µM was 2.

Consider `N#Cc1ccc(COc2ccc(-c3cccc4nc(NC(=O)C5CC5)nn34)cc2)cn1` [Compound 176, N-(5-(4-((6-cyanopyridin-3-yl)methoxy)phenyl)-[1,2,4]triazolo[1,5-a]pyridin-2-yl)cyclopropanecarboxamide], for which the efflux ratio at 1 h, 10 µM in data set [2] is 0.8. Besides, the half-maximal inhibitory concentration (IC50) in data set [1] is < 100 nM. In addition, the “reduction in the TNF release” value in the data set on TNF-alpha release is reported as > 50%. Moreover, in data set [3], the clinical score result is on record as “reduced the clinical score with statistical significance” and the inflammation entry is listed as “significantly reduced inflammation”.

For the compound `CC1CN(C(=O)c2ccc(-c3cccc4nc(NC(=O)C5CC5)nn34)cc2)CC(C)O1` (centres unmarked) [Compound 215, Cyclopropanecarboxylic acid {5-[4-(2,6-dimethyl-morpholine-4-carbonyl)-phenyl]-[1,2,4]triazolo[1,5-a]pyridin-2-yl}-amide], in data set [2], the Papp A→B at 1 h, 10 µM was determined as 6.05 ×10⁻⁶ cm/s and the efflux ratio at 1 h, 10 µM was found to be 9.3. In addition, in the data set with TNF-alpha release, the “reduction in the TNF release” value is listed as > 50%.

As for `CC1(C)CN(C(=O)c2ccc(-c3cccc4nc(NC(=O)C5CC5)nn34)cc2)C1` [Compound 330, Cyclopropanecarboxylic acid (5-[4-(3,3-dimethyl-azetidine-1-carbonyl)-phenyl]-[1,2,4]triazolo[1,5-a]pyridin-2-yl}-amide], in data set [2], the Papp A→B at 1 h, 10 µM was determined as 6.5 ×10⁻⁶ cm/s and the efflux ratio at 1 h, 10 µM is 5.5.

These data come from US10206907B2, “Compounds useful for the treatment of degenerative and inflammatory diseases” (GALAPAGOS NV, priority 2008, dated 2019).
